Source: ChEMBL document CHEMBL1130611, “Synthesis and antibacterial activity of 2-alkoxy penems” (1998)

Assays:
[1] = tested on: Bacillus subtilis; assay: Compound was tested in vitro for antibacterial activity against Bacillus subtilis.; assay type: functional
[2] = tested on: Enterococcus faecalis; assay: Compound was tested in vitro for antibacterial activity against Enterococcus faecalis.; assay type: functional
[3] = tested on: Escherichia coli; assay: Compound was tested in vitro for antibacterial activity against Escherichia coli.; assay type: functional
[4] = tested on: Enterobacter; assay: Compound was tested in vitro for antibacterial activity against Enterobacter.; assay type: functional
[5] = Compound was tested in vitro for inhibition of gram negative organisms.; assay type: functional; conditions: Bacteria
[6] = Compound was tested in vitro for inhibition of gram positive organisms.; assay type: functional; conditions: Bacteria
[7] = tested on: Klebsiella; assay: Compound was tested in vitro for antibacterial activity against Klebsiella.; assay type: functional
[8] = tested on: Morganella; assay: Compound was tested in vitro for antibacterial activity against Morganella.; assay type: functional
[9] = tested on: Providencia; assay: Compound was tested in vitro for antibacterial activity against Providencia.; assay type: functional
[10] = tested on: Salmonella; assay: Compound was tested in vitro for antibacterial activity against Salmonella.; assay type: functional
[11] = tested on: Micrococcus luteus; assay: Compound was tested in vitro for antibacterial activity against Sarcina lutea.; assay type: functional, sarcinea lutea
[12] = tested on: Serratia; assay: Compound was tested in vitro for antibacterial activity against Serratia.; assay type: functional
[13] = tested on: Staphylococcus; assay: Compound was tested in vitro for antibacterial activity against Staphylococcus.; assay type: functional

Row | MIC [1] [µg/mL] | MIC [2] [µg/mL] | MIC [3] [µg/mL] | MIC [4] [µg/mL] | MIC [5] [µg/mL] | MIC [6] [µg/mL] | MIC [7] [µg/mL] | MIC [8] [µg/mL] | MIC [9] [µg/mL] | MIC [10] [µg/mL] | MIC [11] [µg/mL] | MIC [12] [µg/mL] | MIC [13] [µg/mL] | SMILES
1 | 8 | 45.3 | ≥ 128 | ≥ 128 | ≥ 128 | 27.3 | ≥ 128 | ≥ 128 | ≥ 128 | ≥ 128 | 32 | ≥ 128 | 27.4 | C[C@@H](O)[C@H]1C(=O)N2C(C(=O)[O-])=C(OCCN)S[C@H]12.[Na+]
2 |  |  |  |  | 0.7 | 0.1 |  |  |  |  |  |  |  | CCSC1=C(C(=O)[O-])N2C(=O)[C@H]([C@@H](C)O)[C@H]2S1.[Na+]
3 | 1 | 32 | ≥ 25.9 | ≥ 128 | 53 | 2.26 | ≥ 32 | ≥ 90.5 | ≥ 80.6 | ≥ 36.8 | 1 | ≥ 128 | 1.51 | CCCCOC1=C(C(=O)[O-])N2C(=O)[C@H]([C@@H](C)O)[C@H]2S1.[Na+]
4 | 1 | 32 | 14.4 | ≥ 73.5 | 31.6 | 2.44 | 20.2 | 64 | ≥ 64 | 10.6 | 1 | ≥ 87.1 | 1.66 | CCCOC1=C(C(=O)[O-])N2C(=O)[C@H]([C@@H](C)O)[C@H]2S1.[Na+]
5 |  |  |  |  | 0.5 | 0.2 |  |  |  |  |  |  |  | C[C@@H](O)[C@H]1C(=O)N2C(C(=O)[O-])=C(SCCOC(N)=O)S[C@H]12.[Na+]
6 | 1 | 64 | 6.82 | ≥ 24.2 | 12.1 | 2.8 | 5.04 | 45.3 | 39.4 | 4.6 | 1 | ≥ 22.6 | 3.12 | CCOC1=C(C(=O)[O-])N2C(=O)[C@H]([C@@H](C)O)[C@H]2S1.[Na+]
7 | 1 | 64 | 6.62 | 10.1 | 8.3 | 2.07 | 4.92 | 16 | 27.9 | 4 | 0.5 | 16 | 1.57 | C[C@@H](O)[C@H]1C(=O)N2C(C(=O)[O-])=C(OCCOC(N)=O)S[C@H]12.[Na+]
8 | 1.41 | 32 | 10.4 | 24.2 | 16.6 | 3.2 | 8.98 | 45.3 | 39.4 | 6.96 | 2 | 29.6 | 1.51 | COC1=C(C(=O)[O-])N2C(=O)[C@H]([C@@H](C)O)[C@H]2S1.[Na+]
9 |  |  |  |  | 3.6 | 0.2 |  |  |  |  |  |  |  | C[C@@H](O)[C@H]1C(=O)N2C(C(=O)[O-])=C(SCCN)S[C@H]12.[Na+]
